pIC50: −log10 of the molar value.
System: 292921-168-R tumor spheroid viability
Assay: Anticancer human tumor 292921-168-R patient-derived pancreatic carcinoma cell line growth inhibition
Settings: spheroids with HUVEC and MSC; for pIC50: curve of first compound; for viability, T/C: stronger effect = lower value
How it was run: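 Complex spheroids of malignant cells with endothelial cells and mesenchymal stem cells; agents alone or combined, from near clinical Cmax (or 10 microM if unknown) down in half-log steps, 0.25% DMSO final.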
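Note: spheroids exposed to compounds for 7 days.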

What does the source list for `CC1COCCN1c1cc(-c2ccnn2C)c2ccnc(-c3ccn[nH]3)c2n1` (stereo not given) + CC[C@@]1(O)C(=O)OCc2c1cc1n(c2=O)Cc2cc3c(CN(C)C)c(O)ccc3nc2-1?
pIC50 (second compound 0.003 µM): > 7.50; pIC50 (second compound 0.00949 µM): > 7.50; pIC50 (second compound 0.03 µM): > 7.50; pIC50 (second compound 0.0949 µM): > 7.50; pIC50 (second compound 0.3 µM): > 7.50; viability, T/C (second compound 0.003 µM, first compound 0.0316 µM): 22.8%; viability, T/C (second compound 0.003 µM, first compound 0.1 µM): 13.6%; viability, T/C (second compound 0.003 µM, first compound 0.316 µM): 10%; viability, T/C (second compound 0.003 µM, first compound 1 µM): 12.2%; viability, T/C (second compound 0.003 µM, first compound 3.16 µM): 14.4%; viability, T/C (second compound 0.003 µM, first compound 10 µM): 15.4%; viability, T/C (second compound 0.00949 µM, first compound 0.0316 µM): 11.6%; viability, T/C (second compound 0.00949 µM, first compound 0.1 µM): 9.97%; viability, T/C (second compound 0.00949 µM, first compound 0.316 µM): 10%; viability, T/C (second compound 0.00949 µM, first compound 1 µM): 11.8%; viability, T/C (second compound 0.00949 µM, first compound 3.16 µM): 13.8%; viability, T/C (second compound 0.00949 µM, first compound 10 µM): 15%; viability, T/C (second compound 0.03 µM, first compound 0.0316 µM): 8.44%; viability, T/C (second compound 0.03 µM, first compound 0.1 µM): 7.98%; viability, T/C (second compound 0.03 µM, first compound 0.316 µM): 9.15%; viability, T/C (second compound 0.03 µM, first compound 1 µM): 10.8%; viability, T/C (second compound 0.03 µM, first compound 3.16 µM): 12.5%; viability, T/C (second compound 0.03 µM, first compound 10 µM): 14.3%; viability, T/C (second compound 0.0949 µM, first compound 0.0316 µM): 4.99%; viability, T/C (second compound 0.0949 µM, first compound 0.1 µM): 4.72%; viability, T/C (second compound 0.0949 µM, first compound 0.316 µM): 5.08%; viability, T/C (second compound 0.0949 µM, first compound 1 µM): 8.1%; viability, T/C (second compound 0.0949 µM, first compound 3.16 µM): 10.9%; viability, T/C (second compound 0.0949 µM, first compound 10 µM): 12.6%; viability, T/C (second compound 0.3 µM, first compound 0.0316 µM): 2.78%; viability, T/C (second compound 0.3 µM, first compound 0.1 µM): 2.83%; viability, T/C (second compound 0.3 µM, first compound 0.316 µM): 3.27%; viability, T/C (second compound 0.3 µM, first compound 1 µM): 4.98%; viability, T/C (second compound 0.3 µM, first compound 3.16 µM): 6.98%; viability, T/C (second compound 0.3 µM, first compound 10 µM): 9.23%

With `Cc1sc2c(c1C)C(c1ccc(Cl)cc1)=NC(CC(=O)Nc1ccc(O)cc1)c1nnc(C)n1-2` (stereo not given) + Cn1nnc2c(C(N)=O)ncn2c1=O as the compound, how does the pIC50 (second compound 1 µM) read?
Its pIC50 is 5.61.

And the pIC50 (second compound 3.16 µM)?
Its pIC50 is 5.70.

What about the pIC50 (second compound 10 µM) of the same compound?
The pIC50 was 5.72.

What about the pIC50 (second compound 31.6 µM) of the same compound?
Its pIC50 is 5.77.

And the pIC50 (second compound 100 µM)?
The pIC50 was 6.04.

What about the viability, T/C (second compound 1 µM, first compound 0.00949 µM) of the same compound?
The viability, T/C was 109%.

What about the viability, T/C (second compound 1 µM, first compound 0.03 µM) of the same compound?
Its viability, T/C is 111%.

What about the viability, T/C (second compound 1 µM, first compound 0.0949 µM) of the same compound?
The viability, T/C was 117%.

And the viability, T/C (second compound 1 µM, first compound 0.3 µM)?
The viability, T/C was 99.9%.

What about the viability, T/C (second compound 1 µM, first compound 0.949 µM) of the same compound?
Its viability, T/C is 74.6%.

And the viability, T/C (second compound 1 µM, first compound 3 µM)?
The viability, T/C was 44.5%.

What about the viability, T/C (second compound 3.16 µM, first compound 0.00949 µM) of the same compound?
Its viability, T/C is 109%.

And the viability, T/C (second compound 3.16 µM, first compound 0.03 µM)?
The viability, T/C was 117%.

What about the viability, T/C (second compound 3.16 µM, first compound 0.0949 µM) of the same compound?
Its viability, T/C is 113%.

And the viability, T/C (second compound 3.16 µM, first compound 0.3 µM)?
The viability, T/C was 111%.

And the viability, T/C (second compound 3.16 µM, first compound 0.949 µM)?
The viability, T/C was 68.9%.

What about the viability, T/C (second compound 3.16 µM, first compound 3 µM) of the same compound?
Its viability, T/C is 39.2%.

What about the viability, T/C (second compound 10 µM, first compound 0.00949 µM) of the same compound?
The viability, T/C was 112%.

And the viability, T/C (second compound 10 µM, first compound 0.03 µM)?
The viability, T/C was 115%.

What about the viability, T/C (second compound 10 µM, first compound 0.0949 µM) of the same compound?
The viability, T/C was 111%.

And the viability, T/C (second compound 10 µM, first compound 0.3 µM)?
The viability, T/C was 89%.

And the viability, T/C (second compound 10 µM, first compound 0.949 µM)?
Its viability, T/C is 77.3%.

And the viability, T/C (second compound 10 µM, first compound 3 µM)?
Its viability, T/C is 33.9%.

What about the viability, T/C (second compound 31.6 µM, first compound 0.00949 µM) of the same compound?
Its viability, T/C is 107%.

What about the viability, T/C (second compound 31.6 µM, first compound 0.03 µM) of the same compound?
Its viability, T/C is 114%.

And the viability, T/C (second compound 31.6 µM, first compound 0.0949 µM)?
The viability, T/C was 109%.

What about the viability, T/C (second compound 31.6 µM, first compound 0.3 µM) of the same compound?
Its viability, T/C is 102%.

What about the viability, T/C (second compound 31.6 µM, first compound 0.949 µM) of the same compound?
The viability, T/C was 67.4%.

And the viability, T/C (second compound 31.6 µM, first compound 3 µM)?
Its viability, T/C is 32.9%.

And the viability, T/C (second compound 100 µM, first compound 0.00949 µM)?
The viability, T/C was 90.3%.

What about the viability, T/C (second compound 100 µM, first compound 0.03 µM) of the same compound?
The viability, T/C was 106%.

And the viability, T/C (second compound 100 µM, first compound 0.0949 µM)?
Its viability, T/C is 95.3%.

And the viability, T/C (second compound 100 µM, first compound 0.3 µM)?
Its viability, T/C is 89.1%.

What about the viability, T/C (second compound 100 µM, first compound 0.949 µM) of the same compound?
The viability, T/C was 48.3%.

And the viability, T/C (second compound 100 µM, first compound 3 µM)?
The viability, T/C was 16.1%.
